# From patent US9878984B2, “Anti-cancer compounds” (NORTHWESTERN UNIVERSITY, priority 2008, dated 2018)
# Tested on: Chk2
# Assay: DNA damage response assay (pThr68-Chk2 / total Chk2 western blot)
# Type: cell-based, human
# Details: HeLa cells, [GI99%], 20 hr, normalized to mitoxantrone
# Experimental: DNA Damage Response Assay: 250,000 HeLa cells were plated in 35 mm culture dishes and allowed to attach for 8 hr and were then treated with the [GI99%] of each compound for 20 hr (total media volume was […] with 1% DMSO). After treatment cells were lysed in 150 μL detergent buffer containing 1:100 v/v protease inhibitor cocktail (Sigma—St. Louis, Mo.). Lysates were run on denaturing 12% acrylamide gels and transferred to nitrocellulose membranes. The membranes were blocked in blotto, incubated in anti-pThr68-Chk2 antibody (Cell Signaling—Danvers, Mass.) at 1:500 v/v dilution in blotto overnight 4° C., washed, incubated in HRP conjugated anti-rabbit secondary antibody (Jackson) at 1:5,000 v/v dilution in blotto for 1 hr, and then developed. The membranes were then stripped with a reducing buffer, blocked in blotto, incubated in anti-Chk2 antibody (Biolegend—San Diego, Calif.) at 1:500 v/v dilution in blotto overnight at 4° C., washed, incubated in HRP conjugated anti-mouse secondary antibody (Jackson) at 1:5,000 v/v dilution in blotto for 1 hr, and then developed. Membranes were developed with PicoWest Developing Solution (Pierce) and exposed to film. The intensities of bands were quantified as described in the previous section. The data are expressed as the average ratio of pThr68-Chk2 to total Chk2 as normalized to the mitoxantrone control in each of three independent experiments.
# Topoisomerase inhibition by most mechanisms should cause activation of DNA damage response pathways because of the production of single and double strand DNA breaks, as is the case with amonafide. […] Therefore, measuring the DNA damage response at a fixed cytotoxic dose ([GI99%]) will determine the extent that DNA damage contributes to the cytotoxicity of these compounds. […] Activation of Chk2 was determined by measuring the ratio of pThr68-Chk2 to total Chk2 in HeLa cells treated with the [GI99%].
smiles,measurement,value
"CN(C)CCN1C(=O)c2cccc3cc(N)cc(c23)C1=O [amonafide, reference compound]",DNA damage response (ratio of pThr68-Chk2 to total Chk2),evoked the strongest DNA damage response
